In patent US8771983B2, “Method and kit for expressing protein under regulation of the expression from repeated sequence formed by gene amplification, and transformant” (National University of Corporation Hiroshima University, priority 2004, dated 2014):

Tested on: expression of d2EGFP in human colon cancer cells COLO 320DM cells
Experiment: Level of expression of d2EGFP after treatment of cells with 5-aza-2′-deoxycytidine and/or Trichostatin A (Example 6)
Format: cell-based
Conditions: for accumulated fluorescence intensity / average fluorescence intensity: 3 days
Procedure: Fluorescence intensity of these cells were measured by using a cell sorter. The measurement was carried out by sorting 20,000 cells by setting living cells at a gate. The cell sorter used was made by Becton Dickinson, and operated under conditions as described in the manual attached thereto.
In this method for detecting the fluorescence intensity, detection limit was 1, and all fluorescence intensities of 1 or less would be detected as 1. In view of this, a product of a ratio (cell %) of cells of fluorescence intensities of 2 or more in all living cells (10,000 cells) and an average of the fluorescence intensities of the cells having fluorescence intensities of 2 or more was calculated out for each experimental plot. This product is referred to as “accumulated fluorescence intensity” hereinafter and in later Examples and shown in boxed letter in the figures.
A mixture of a plasmid (pSFVdhfr/d2EGFP) and the plasmid DNA having the Aves-derived HS4 insulator sequence was transfected to human colon cancer cells COLO 320DM cells by lipofection. The plasmid (pSFVdhfr/d2EGFP) was a plasmid having (a) IR and MAR derived from human DHFR gene locus, (b) Blasticidin tolerance gene, and (c) d2EGFP gene that was under control of TRE-promoter (Tetracycline inducing promoter). The plasmid DNA having the Aves-derived HS4 insulator sequence was identical with the one described in Example 2. From 2 days later since the gene transfection, the cells were selected with 5 μg/ml of Blasticidin (Funakoshi Corp.). After 3 to 4 weeks, many colonies of transformed cells were obtained.
Into a culture solution of the transformed cells, of 1 μM or 3 μM of 5-aza-2′ deoxycytidine (hereinafter referred to as “5-aza” where appropriate; Sigma) was added. Thereby, the cells were treated with 5-aza for 3 days. For comparison purposes, 20 nM of Trichostatin A (hereinafter referred to as “TSA” where appropriate; histone deacetylation inhibitor, Sigma), which is known as a material for increasing gene expression from the repeated sequence, was added to some culture solutions of the transformed cells and analyzed.

Nc1ncn([C@H]2C[C@H](O)[C@@H](CO)O2)c(=O)n1 [5-aza, 5-aza-2′-deoxycytidine]
accumulated fluorescence intensity (1 μM of 5-aza): 895
average fluorescence intensity (1 μM of 5-aza): 9.48
accumulated fluorescence intensity (3 μM of 5-aza): 1040
average fluorescence intensity (3 μM of 5-aza): 10.93
fluorescence intensity of the cells after treatment versus before treatment (fluorescence microscopic images, 1 μM of 5-aza): higher
